Each structure is given as a SMILES string.

The test system of series [1] is HIV-1. The settings on record: transdermal patch containing DMF; cited from earlier work.
The subject of a further series is HIV. The settings on record: as previously disclosed; cited from earlier work.
Series [2] in a line: Transdermal absorption of liquid DMF. The class given is in vivo, human. The settings on record: two patches of diameter 9 cm, total skin surface area 127 cm^2. The protocol: For transdermal administration of a polar compound, the rate of absorption is determined by the skin of the subject.
Accordingly, the desired rate of absorption may be achieved by controlling the surface area of the skin exposed to the drug, as by determining the area of each patch and the number of patches applied to the skin.

For series [3], the system named is HIV-1. Kind of series: Follow-up HIV PCR and CD4 count after transdermal DMF study. The class given is in vivo, human. The text has this: Individuals, the study of whom generated the teachings of ZA 1998/064649, despite being infected with HIV have maintained a CD4^+ T-cell count above 350 for more than 20 years without being on antiretroviral treatment. These individuals are referred to herein as Long-term Non-Progressors (“LTNP”).
One such individual, had initially presented with HIV PCR detecting 63.298 HIV-1 RNA copies/ml of plasma in December 1996.

Turning to `CN(C)C=O` [DMF, N,N-dimethylformamide], the “outcome of treatment of patients infected with HIV-1” value in the series with HIV-1 [1] is on record as “promising results”. For the same compound, the “inhibition of HIV production” value in the series on HIV is listed as “powerful inhibitors of HIV production”. The absorption rate entry in series [2] was “about 1.2 g of DMF per hour”. Besides, the “HIV-1 RNA copies/ml of plasma by HIV PCR” value was < 40 copies/ml in the series with HIV-1 [3] (one LTNP individual, follow-up March 2006 after transdermal DMF study, initially 63.298 copies/ml in December 1996) and “No” with HIV-1 [3] (same individual, further follow-up 2011). Besides, the “CD4 Count” value with HIV-1 [3] (same individual, follow-up 2011) turned out to be 920 µL⁻¹.
As to `C[S+](C)[O-]` [DMSO, Diemthylsulfoxide], the “inhibition of HIV production” value in the series with HIV is on record as “powerful inhibitors of HIV production”.

Values taken from patent US20240091310A1, “COMPOSITIONS AND METHODS USEFUL FOR THE PREVENTION AND/OR TREATMENT OF DISEASE IN MAMMALS” (VIRO-GEN (PTY) LTD, priority 2020, published 2024).
